This experiment has as its target T1, human CGRP receptor (Homo sapiens, UniProt O60894+Q16602).
T1 construct: SK-N-MC endogenously expressing the human CGRP receptor; endogenous in cells; host or cells: SK-N-MC human neuroblastoma cells
The experiment is described as follows: cAMP functional assay (HTRF cAMP dynamic-2) in SK-N-MC cells. In kind it is cell-based. The following applies: SK-N-MC cells endogenously expressing human CGRP receptor; challenge with EC80 human CGRP (0.3 nM); functional pKb converted from pIC50 by modified Cheng-Prussoff equation. The procedure:
Biological Activity cAMP Functional Assay
cAMP production following receptor activation was determined using the Homogeneous Time-Resolved Fluorescence (HTRF) cAMP dynamic-2 assay (Cisbio, France). The human neuroblastoma cell line SK-N-MC endogenously expressing the human CGRP receptor was seeded at a density of 12,500 cells/well in solid walled 96 well half area plates (Costar, Catalog Number 3688, Corning Life Sciences, Germany). After 16 h incubation at 37° C. media was removed and cells were incubated at 37° C. for 30 min in serum free media containing 500 μM IBMX (Tocris, Abingdon, UK, Catalog Number 2845) and increasing concentrations of test antagonist. Following this cells were challenged with an EC80 concentration of human CGRP (0.3 nM) for a further 30 min at 37° C. and then cAMP production was determined as manufacturer's instructions before plates were read on a PheraStar fluorescence plate reader (BMG LabTech, Germany). IC50 values were derived from the inhibition curve. The pIC50 values (where pIC50=−log 10 IC50) were converted to a functional pKb value using a modified Cheng-Prussoff equation where Kd=agonist EC50 and L hot=agonist challenge concentration. The pKb values of certain compounds of the invention are detailed in Table 4.
In general terms: Time-resolved FRET reads energy transfer from a long-lived donor to a nearby acceptor.
T1 sequence (Q16602 23-461): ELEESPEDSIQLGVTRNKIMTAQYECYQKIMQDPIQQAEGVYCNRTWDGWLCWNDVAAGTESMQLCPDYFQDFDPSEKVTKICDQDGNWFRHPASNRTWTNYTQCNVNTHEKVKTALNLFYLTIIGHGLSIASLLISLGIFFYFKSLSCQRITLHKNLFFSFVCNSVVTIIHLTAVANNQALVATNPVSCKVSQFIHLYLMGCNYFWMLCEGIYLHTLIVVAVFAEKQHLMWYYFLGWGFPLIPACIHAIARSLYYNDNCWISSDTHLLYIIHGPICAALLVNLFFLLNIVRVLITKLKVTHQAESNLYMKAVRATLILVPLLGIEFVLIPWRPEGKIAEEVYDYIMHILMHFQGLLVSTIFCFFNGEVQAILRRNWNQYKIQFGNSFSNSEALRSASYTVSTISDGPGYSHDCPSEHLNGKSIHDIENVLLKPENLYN
T1 sequence (O60894 27-148): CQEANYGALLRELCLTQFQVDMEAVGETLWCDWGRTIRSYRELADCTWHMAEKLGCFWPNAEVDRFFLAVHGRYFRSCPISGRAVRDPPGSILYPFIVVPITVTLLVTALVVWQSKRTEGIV
On to `Cc1cc(C[C@H]2OC(=O)N3CCC4(CC3)OC(=O)Nc3ncc(cc34)/C=C/COCCOCCOCCN(C)C2=O)cc2cn[nH]c12` [Example 7-2, (7R,20E)-9-methyl-7-[(7-methyl-1H-indazol-5-yl)methyl]-6,12,15,18,28-pentaoxa-4,9,24,26-tetrazatetracyclo[20.6.2.21,4.025,29]dotriaconta-20,22(30),23,25(29)-tetraene-5,8,27-trione], for which the Kb was 2 nM. Turning to `Cc1cc(C[C@H]2NC(=O)c3ccc4c(c3)C[C@]3(C4)C(=O)Nc4ncc(cc43)/C=C/COCCOCCN(C)C2=O)cc2cn[nH]c12` [Example 3-2, (1S,10R,20E)-12-methyl-10-[(7-methyl-1H-indazol-5-yl)methyl]-15,18-dioxa-9,12,24,26-tetrazapentacyclo[20.5.2.11,4.13,7.025,28]hentriaconta-3,5,7(30),20,22(29),23,25(28)-heptaene-8,11,27-trione], the Kb was 0.631 nM.

Take `Cc1cc(C[C@H]2NC(=O)c3cc4c(cn3)C[C@@]3(C4)C(=O)Nc4ncc(cc43)/C=C/COCCN(C)CCN(C)C2=O)cc2cnn(C)c12` [Example 2-9, (1R,10R,20E)-10-[(1,7-dimethylindazol-5-yl)methyl]-12,15-dimethyl-18-oxa-6,9,12,15,24,26-hexazapentacyclo[20.5.2.11,4.13,7.025,28]hentriaconta-3,5,7(30),20,22(29),23,25(28)-heptaene-8,11,27-trione]: the Kb was 1.26 nM. With `Cc1cc(C[C@H]2NC(=O)c3ccc4c(n3)CC3(C4)C(=O)Nc4ncc(cc43)/C=C/COCCOCCN(C)C2=O)cc2cn[nH]c12` (single isomer, unassigned) [Example 8-2] the figure was 31.6 nM; with `Cc1cc(C[C@H]2NC(=O)c3ccc4c(c3)C[C@]3(C4)C(=O)Nc4ncc(cc43)/C=C/COCCCN(C)C2=O)cc2cn[nH]c12` [Example 3-3, (1S,10R,18E)-12-methyl-10-[(7-methyl-1H-indazol-5-yl)methyl]-16-oxa-9,12,22,24-tetrazapentacyclo[18.5.2.11,4.13,7.023,26]nonacosa-3,5,7(28),18,20(27),21,23(26)-heptaene-8,11,25-trione], 0.794 nM; with `Cc1cc(C[C@H]2NC(=O)c3ccc4c(n3)CC3(C4)C(=O)Nc4ncc(cc43)/C=C/COCCOCCN(C)C2=O)cc2cn[nH]c12` (single isomer, unassigned) [Example 8-1], 20 nM. Then `Cc1cc(C[C@H]2OC(=O)N3CCC4(CC3)OC(=O)Nc3ncc(cc34)CCCOCCOCCOCCN(C)C2=O)cc2cn[nH]c12` [Example 7-5, (7R)-9-methyl-7-[(7-methyl-1H-indazol-5-yl)methyl]-6,12,15,18,28-pentaoxa-4,9,24,26-tetrazatetracyclo[20.6.2.21,4.025,29]dotriaconta-22(30),23,25(29)-triene-5,8,27-trione], with 1.58 nM; and `Cc1cc(C[C@H]2NC(=O)c3ccc4c(c3)C[C@]3(C4)C(=O)Nc4ncc(cc43)CCCOCCOCCN(C)C2=O)cc2cn[nH]c12` [Example 3-11, (1S,10R)-12-methyl-10-[(7-methyl-1H-indazol-5-yl)methyl]-15,18-dioxa-9,12,24,26-tetrazapentacyclo[20.5.2.11,4.13,7.025,28]hentriaconta-3,5,7(30),22(29),23,25(28)-hexaene-8,11,27-trione], with 2 nM; and `Cc1cc(C[C@H]2OC(=O)N3CCC4(CC3)OC(=O)Nc3ncc(cc34)/C=C/COCCOCCCN(C)C2=O)cc2cn[nH]c12` [Example 7-4, (7R,18E)-9-methyl-7-[(7-methyl-1H-indazol-5-yl)methyl]-6,13,16,26-tetraoxa-4,9,22,24-tetrazatetracyclo[18.6.2.21,4.023,27]triaconta-18,20(28),21,23(27)-tetraene-5,8,25-trione], with 1.26 nM. Then `Cc1cc(C[C@H]2OC(=O)c3ccc4c(c3)C[C@@]3(C4)C(=O)Nc4ncc(cc43)/C=C/COCCOCCN(C)C2=O)cc2cn[nH]c12` [Example 5-2, (1R,10R,20E)-12-methyl-10-[(7-methyl-1H-indazol-5-yl)methyl]-9,15,18-trioxa-12,24,26-triazapentacyclo[20.5.2.11,4.13,7.025,28]hentriaconta-3,5,7(30),20,22(29),23,25(28)-heptaene-8,11,27-trione], with 0.398 nM. Consider `Cc1cc(C[C@H]2OC(=O)N3CCC4(CC3)OC(=O)Nc3ncc(cc34)CCCOCCCCCN(C)C2=O)cc2cn[nH]c12` [Example 7-6, (7R)-9-methyl-7-[(7-methyl-1H-indazol-5-yl)methyl]-6,15,25-trioxa-4,9,21,23-tetrazatetracyclo[17.6.2.21,4.022,26]nonacosa-19(27),20,22(26)-triene-5,8,24-trione], for which the Kb was 0.251 nM. `Cc1cc(C[C@H]2NC(=O)c3ccc4c(c3)C[C@]3(C4)C(=O)Nc4ncc(cc43)/C=C/COCCNCCN(C)C2=O)cc2cn[nH]c12` [Example 3-6, (1S,10R,20E)-12-methyl-10-[(7-methyl-1H-indazol-5-yl)methyl]-18-oxa-9,12,15,24,26-pentazapentacyclo[20.5.2.11,4.13,7.025,28]hentriaconta-3,5,7(30),20,22(29),23,25(28)-heptaene-8,11,27-trione]: the Kb is 0.501 nM.

The compound `Cc1cc(C[C@@H]2NC(=O)c3cnc4c(c3)C[C@@]3(C4)C(=O)Nc4ncc(cc43)/C=C/COCCOCCN(C)C2=O)cc2cn[nH]c12` [Example 1-3, (1S,10S,20E)-12-methyl-10-[(7-methyl-1H-indazol-5-yl)methyl]-15,18-dioxa-5,9,12,24,26-pentazapentacyclo[20.5.2.11,4.13,7.025,28]hentriaconta-3,5,7(30),20,22(29),23,25(28)-heptaene-8,11,27-trione] showed a Kb of 10 nM. Then `Cc1cc(C[C@H]2NC(=O)c3cc4c(cn3)C[C@@]3(C4)C(=O)Nc4ncc(cc43)/C=C/COCCOCCN(C)C2=O)cc2cn[nH]c12` [Example 2-2, (1R,10R,20E)-12-methyl-10-[(7-methyl-1H-indazol-5-yl)methyl]-15,18-dioxa-6,9,12,24,26-pentazapentacyclo[20.5.2.11,4.13,7.025,28]hentriaconta-3,5,7(30),20,22(29),23,25(28)-heptaene-8,11,27-trione], with 0.794 nM.

For `Cc1cc(C[C@H]2NC(=O)c3cc4c(cn3)C[C@@]3(C4)C(=O)Nc4ncc(cc43)/C=C/COCCCCCN(C)C2=O)cc2cnn(C)c12` [Example 2-6, (1R,10R,20E)-10-[(1,7-dimethylindazol-5-yl)methyl]-12-methyl-18-oxa-6,9,12,24,26-pentazapentacyclo[20.5.2.11,4.13,7.025,28]hentriaconta-3,5,7(30),20,22(29),23,25(28)-heptaene-8,11,27-trione], the Kb was 0.794 nM. `Cc1cc(C[C@H]2NC(=O)c3ccc4c(c3)C[C@]3(C4)C(=O)Nc4ncc(cc43)/C=C/COCCCCN(C)C2=O)cc2cn[nH]c12` [Example 3-4, (1S,10R,19E)-12-methyl-10-[(7-methyl-1H-indazol-5-yl)methyl]-17-oxa-9,12,23,25-tetrazapentacyclo[19.5.2.11,4.13,7.024,27]triaconta-3,5,7(29),19,21(28),22,24(27)-heptaene-8,11,26-trione] gave a Kb of 0.316 nM. Then `Cc1cc(C[C@H]2NC(=O)c3cc4c(cn3)C[C@]3(C4)C(=O)Nc4ncc(cc43)/C=C/COCCOCCN(C)C2=O)cc2cnn(C)c12` [Example 2-4, (1S,10R,20E)-10-[(1,7-dimethylindazol-5-yl)methyl]-12-methyl-15,18-dioxa-6,9,12,24,26-pentazapentacyclo[20.5.2.11,4.13,7.025,28]hentriaconta-3,5,7(30),20,22(29),23,25(28)-heptaene-8,11,27-trione], with 25.1 nM; and `Cc1cc(C[C@H]2NC(=O)c3cc4c(cn3)C[C@@]3(C4)C(=O)Nc4ncc(cc43)/C=C/CN(C)CCCCCN(C)C2=O)cc2cn[nH]c12` [Example 2-3, (1R,10R,20E)-12,18-dimethyl-10-[(7-methyl-1H-indazol-5-yl)methyl]-6,9,12,18,24,26-hexazapentacyclo[20.5.2.11,4.13,7.025,28]hentriaconta-3,5,7(30),20,22(29),23,25(28)-heptaene-8,11,27-trione], with 1.26 nM; and `Cc1cc(C[C@@H]2OC(=O)c3cnc4c(c3)C[C@@]3(C4)C(=O)Nc4ncc(cc43)/C=C/COCCOCCN(C)C2=O)cc2cn[nH]c12` [Example 4-2, (1S,10S,20E)-12-methyl-10-[(7-methyl-1H-indazol-5-yl)methyl]-9,15,18-trioxa-5,12,24,26-tetrazapentacyclo[20.5.2.11,4.13,7.025,28]hentriaconta-3,5,7(30),20,22(29),23,25(28)-heptaene-8,11,27-trione], with 3.16 nM. Consider `Cc1cc(C[C@H]2OC(=O)N3CCC4(CC3)OC(=O)Nc3ncc(cc34)/C=C/COCCCCCN(C)C2=O)cc2cn[nH]c12` [Example 7-3, (7R,17E)-9-methyl-7-[(7-methyl-1H-indazol-5-yl)methyl]-6,15,25-trioxa-4,9,21,23-tetrazatetracyclo[17.6.2.21,4.022,26]nonacosa-17,19(27),20,22(26)-tetraene-5,8,24-trione], for which the Kb was 1.26 nM.

The values are drawn from patent US12344621B2, “CGRP antagonist compounds” (Nxera Pharma UK Limited, priority 2019, dated 2025).
